Assay results taken from patent US20050244823A1, “Novel epitopes for celiac disease and autoimmune diseases, methods for detecting those and novel non-antigenic food compounds” (Academisch Ziekenhuis Leiden, priority 2002, published 2005).
Where no end group is shown, it is not given here. [ ]: non-standard residue; d: D form. Gln(vinylogous ester) = glutamine whose side-chain carboxamide is replaced by a vinylogous ester electrophilic trap (CO2Et)

What was measured:
[1] = target: T1, tissue transglutaminase (tTG) (Cavia cutleri, UniProt P08587); experiment: tTG treatment of synthetic gluten peptides, deamidation determined by mass spectrometry; type: biochemical; conditions: for deamidation of glutamine residues by tTG: peptide 500 μg/ml, tTG 100 μg/ml, 37° C., 4 h minimum, pH 6.5
T1 construct: purchased Sigma, Zwijndrecht, NL T-5398
T1 sequence (P08587 2-690 limits assumed): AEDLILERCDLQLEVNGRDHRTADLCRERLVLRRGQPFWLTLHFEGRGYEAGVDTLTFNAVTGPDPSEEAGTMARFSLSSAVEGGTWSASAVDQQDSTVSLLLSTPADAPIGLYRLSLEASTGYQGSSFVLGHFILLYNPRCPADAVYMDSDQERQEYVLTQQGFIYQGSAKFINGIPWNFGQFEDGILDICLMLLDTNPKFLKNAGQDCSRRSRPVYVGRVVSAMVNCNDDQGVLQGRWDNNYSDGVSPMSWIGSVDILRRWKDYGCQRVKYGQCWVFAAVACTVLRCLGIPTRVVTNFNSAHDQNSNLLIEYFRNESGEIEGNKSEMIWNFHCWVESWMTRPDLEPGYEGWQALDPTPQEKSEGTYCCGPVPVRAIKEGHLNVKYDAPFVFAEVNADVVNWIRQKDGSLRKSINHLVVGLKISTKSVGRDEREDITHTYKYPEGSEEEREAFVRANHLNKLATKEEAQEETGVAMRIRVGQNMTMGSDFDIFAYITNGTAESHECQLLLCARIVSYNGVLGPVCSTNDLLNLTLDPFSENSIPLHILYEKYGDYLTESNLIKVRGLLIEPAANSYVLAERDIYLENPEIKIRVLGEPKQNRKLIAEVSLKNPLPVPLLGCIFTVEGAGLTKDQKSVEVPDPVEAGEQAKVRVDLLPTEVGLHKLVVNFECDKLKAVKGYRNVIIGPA
Protocol: (§1) Peptides and tTG treatment. Peptides were synthesised by standard Fmoc chemistry on a multiple peptide synthesizer (SyroII, MultiSynTech GmbH, Witten, Germany). Integrity of synthetic peptides was checked by rpHPLC and mass spectrometry. Tissue transglutaminase (tTG) treatment was performed by incubating the peptides (500 μg/ml) with the enzyme (100 μg/ml, Sigma, Zwijndrecht, NL; T-5398) at 37° C. for 4 h minimum, in 50 mM triethylamine-acetate pH 6.5, 2 mM CaCl2.
(§2) Mass spectrometry. Electrospray ionisation mass spectrometry was performed on the synthetic gluten peptides before and after tTG treatment, using a Q-TOF hybrid mass spectrometer (Micromass, Manchester, UK). Precursor ions were selected with the quadrupole window set to 3 Da and fragments were collected with high efficiency with the orthogonal time of flight mass spectrometer. The collision gas applied was argon (pressure 4×10^−5 mbar) and the collision voltage approximately 30 V. Deamidation of glutamine residues in synthetic gluten peptides was determined by mass spectrometric analysis as described previously (van de Wal, 1998a). Deamidation of a glutamine residue results in an increase of 1 Da. These conversions were assigned to particular glutamine residues by comparison of the fragmentation spectra of tTG treated and non-treated peptides.

[2] = test system: gluten specific T cell lines; experiment: T cell proliferation assay with gluten specific T cell lines; type: cell-based, human; conditions: T cell line from small intestinal biopsy of celiac disease patient; antigen 1-10 μg/ml; positive = Stimulation Index>3
Protocol: T cell clones T cell lines. Gluten specific T cell lines were generated from small intestinal biopsies of celiac disease patients as described before (van de Wal, 1998a).
T cell proliferation assays. Proliferation assays were performed in duplicate in 150 μl RPMI1640 (Gibco, Breda, NL) supplemented with 10% human serum in 96-well flat-bottomed plates (Falcon) using 10^4 T cells stimulated with 10^5 irradiated PBMCs (3000 RAD) in the presence or absence of antigen (1-10 μg/ml). After 48 hours at 37° C., cultures were pulsed with 0.5 μCi of ^3H-thymidine and harvested 18 hours thereafter as described previously (van de Wal, 1998b).

[3] = target: T1, tissue transglutaminase (tTG); conditions: earlier publications (van de Wal 1998a; Arentz-Hansen 2000); cited from earlier work
[4] = target: T1, tissue transglutaminase (tTG); experiment: Inhibition of tTG induced deamidation of a substrate gluten peptide, mass spectrometric analysis; type: biochemical
Protocol: as §1, §2

[5] = test system: gluten specific T cell lines; conditions: Arentz-Hansen 2000; Anderson 2000; cited from earlier work
[6] = tTG-treated synthetic gluten peptide, mass spectrometry

Substance: PFSQQQQLVL
- deamidation of glutamine residues by tTG [1]: all Q-residues are deamidated

Substance: LQQPQQ6PQFQPQQQF [Peptide 20]
- Rules QP ↓ (share of Q residues following the rule: Q preceding P not deamidated) [1, 6]: 100%
- Rules QXP ↑ (share of Q residues following the rule: P at Q+2 allows deamidation) [1, 6]: 50%
- Rules QXXF ↑ (share of Q residues following the rule: bulky/hydrophobic residue at Q+3 allows deamidation) [1, 6]: 50%^
- Rules QXXP ↓ (share of Q residues following the rule: P at Q+3 inhibits deamidation) [1, 6]: 100%

Substance: PFPQPQQPQQPFPQ [gluten-derived peptide]
- stimulation of gluten specific T cell lines (proliferation) [2]: stimulate gluten specific T cell lines

Substance: PSGQ208GSFQPSQQ216NPQA
- deamidation of glutamine residues by tTG / tTG substrate [3]: Q208 and Q216 are deamidated by tTG, whereas positions Q212, Q215, and Q219 are not

Substance: PFPQTQQPQQPFPQ [gluten-derived peptide]
- stimulation of gluten specific T cell lines (proliferation) [2]: stimulate gluten specific T cell lines

Substance: QPQLPYPQ
- deamidation of glutamine residues by tTG / tTG substrate [3]: known to be a tTG substrate

Substance: PSGQ208GSFQPSQQ216N
- deamidation of glutamine residues by tTG [1]: only the Q208 is deamidated

Substance: first-generation inhibitor: biotinylated QPQLPYQ in which the carboxamide of glutamine at position 3 is replaced by a vinylogous ester electrophilic trap (CO2Et, FIG. 3) (QP[Gln(vinylogous ester)]LPYQ; also: biotinylated)
- enzyme activity ([4]; 0.3 molar ratio of enzyme to inhibitor): completely abolished
- inhibition of deamidation of a substrate peptide ([4]; inhibitor mixed with the enzyme in an equimolar ratio): over 50%

Substance: QLQPFPQPQLPY
- T cell stimulatory activity in celiac disease patients [5]: immunodominant

Substance: QFPQTQQPQQPFPQ [gluten-derived peptide]
- stimulation of gluten specific T cell lines (proliferation) [2]: stimulate gluten specific T cell lines

Substance: PFPQSQQPQQPFPQ [gluten-derived peptide]
- stimulation of gluten specific T cell lines (proliferation) [2]: stimulate gluten specific T cell lines

Substance: QQPFPQQPQQPFPQ [gluten-derived peptide]
- stimulation of gluten specific T cell lines (proliferation) [2]: stimulate gluten specific T cell lines

Substance: QQPYPQQPQQPFPQ [gluten-derived peptide]
- stimulation of gluten specific T cell lines (proliferation) [2]: stimulate gluten specific T cell lines

Substance: 9: gluten peptide FPQHCNYQ[Q]QPQTFPQPF; [Q] = image character, presumably deamidated Q [Peptide 9]
- Rules QP ↓ (share of Q residues following the rule: Q preceding P not deamidated) [1, 6]: 100%
- Rules QXP ↑ (share of Q residues following the rule: P at Q+2 allows deamidation) [1, 6]: 100%
- Rules QXXP ↓ (share of Q residues following the rule: P at Q+3 inhibits deamidation) [1, 6]: 100%

Substance: PFPQLQQPQQPFPQ [gluten-derived peptide]
- stimulation of gluten specific T cell lines (proliferation) [2]: stimulate gluten specific T cell lines

Substance: PFSQQQQPV
- deamidation of glutamine residues by tTG [1]: specifically and efficiently deamidated

Substance: QLPFPQQPQQPFPQ [gluten-derived peptide]
- stimulation of gluten specific T cell lines (proliferation) [2]: stimulate gluten specific T cell lines
